Drawing on BindingDB's records for patent US9745328 (Janssen Pharmaceutica NV, 2017), this text covers Ki for one compound.

For this assay, the target named is T1, Arachidonate 5-lipoxygenase-activating protein (Homo sapiens, UniProt P20292).
T1 sequence (P20292 whole entry): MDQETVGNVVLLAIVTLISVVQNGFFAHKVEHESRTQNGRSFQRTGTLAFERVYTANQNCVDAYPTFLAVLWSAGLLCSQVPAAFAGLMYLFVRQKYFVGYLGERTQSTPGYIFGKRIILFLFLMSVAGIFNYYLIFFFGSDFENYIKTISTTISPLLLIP
Description: Binding Assay.

Molecules are shown by their SMILES.

Description: The FLAP binding assay is performed in HTRF format (homogeneous time resolved fluorescence). FLAP-containing membranes (1 μg/well final for human) are incubated in the presence of the HTRF ligand. […] The reaction is allowed to proceed for two hours after which the plate is read on an Envision plate reader in HTRF mode. Data are expressed as a HTRF ratio. For human FLAP binding assays, data are analyzed with 3DX Explorer software. […] For analysis, data from multiple runs are averaged and each compound may be tested in 2 to 20 runs. Each run comprises two plates and each plate includes duplicates. Data from each plate is averaged and data are imported into 3DX. The data from multiple runs are aggregated as the average of duplicates of the calculated ratios in order to calculate Ki and IC50 values.

Consider `Nc1cnc(-c2ccc(-c3ccccc3-c3ccc(N)nn3)cc2F)cn1` [US9745328, Compound 863], for which the affinity, expressed as Ki, was 41.1 nM.
